Assays:
[1] = system: human coronary artery endothelial cells (hCaEC); assay: cytokine production by TNFα-treated human coronary artery endothelial cells (ELISA); format: cell-based; settings: TNFα (5 ng/ml), 24 hours
Method: Experiments were performed to determine the effects of zotarolimus, sirolimus and dexamethasone on the production of TNFα, IL-6 and MCP-1 by activated human monocytes In addition to monocytes and macrophages two other key cell types are involved in the etiology of restenosis, arterial smooth muscle and endothelial cells. These cells are activated and produce cytokines in response to TNFα. […] The activation of cytokine production by human coronary artery smooth muscle and endothelial cells following TNFα treatment was determined by measuring interleukine-8 (IL-8), MCP-1 and IL-6 production. As shown by the results of the experiments described below, the ability of these compounds to inhibit the production of cytokines supports their use in combination as anti-restenotic agents since these cytokines play a role in the development of restenosis. […] After 24 hours, the supernatants were carefully collected and TNFα, IL-6 and MCP-1 levels determined by ELISA. Primary cultures of human coronary artery endothelial and smooth muscle cells were obtained from Cambrex and maintained as described by the vendor. […] After 24 hours the supernatants were removed and replaced with media containing TNFα (5 ng/ml) in the presence and absence of various concentrations of zotarolimus, dexamethasone or sirolimus. The cells were incubated for 24 hours and the supernatants carefully removed and frozen until measurement. Cytokine levels were measured in the supernatants by sandwich ELISA.

[2] = system: human coronary artery endothelial cells (hCaEC); assay: 3H-thymidine uptake proliferation assay, hCaEC; format: cell-based; settings: Homo sapiens, Endothelial cell, 3 h; read-out: hCaEC IC50 Mean ± SEM

Structure (SMILES): CO[C@H]1C[C@@H]2CC[C@@H](C)[C@@](O)(O2)C(=O)C(=O)N2CCCC[C@H]2C(=O)O[C@H]([C@H](C)C[C@@H]2CC[C@H](n3cnnn3)[C@H](OC)C2)CC(=O)[C@H](C)/C=C(\C)[C@@H](O)[C@@H](OC)C(=O)[C@H](C)C[C@H](C)/C=C/C=C/C=C/1C [zotarolimus]
- Maximal Inhibitory Activity, IL-6 [1]: − (− indicates maximal inhibitory activity less than 50% of control)
- Maximal Inhibitory Activity, Il-8 [1]: − (− indicates maximal inhibitory activity less than 50% of control)
- Maximal Inhibitory Activity, MCP-1 [1]: − (− indicates maximal inhibitory activity less than 50% of control)
- IC50 [2]: 3.2 ± 0.5 nM

Reference: patent publication US8394398B2 (Abbott Laboratories, priority 1997, dated 2013)
